Measured values reported in US11549115B2, “Compositions and methods for regulated gene expression” (YALE UNIVERSITY, priority 2017, dated 2023).

How the values were obtained:
[1] = in vivo; cited from earlier work
[2] = tested on: Bt::tetR P1TDP^GH023-NanoLuc; type: in vivo, mice
Experimental: Germ-free Swiss Webster mice were orally gavaged with a mixture of 1×10^8 CFU of each of 14 human gut microbes shown in FIG. 12D and Table 3. With the exception of the reporter strain, all species are sensitive to gentamicin and/or erythromycin (data not shown). Colonization was allowed to stabilize for at least 7 days prior to the start of the experiment. Fecal pellets were collected daily, and mice were given aTC (100 μg/mL) in the drinking water for 48 hours after stool collection on Day 3. Fecal samples were homogenized, and fibrous/insoluble matter removed as described above. From the supernatant, 200 μL was stored for DNA purification as previously described (Goodman, A. L. et al., 2011, Nat. Protoc., 6:1969-1980) and subsequent qPCR analysis (described below), 10 μL was used for CFU determination of the reporter strain by plating dilutions on BHI-blood agar plates containing gentamicin and erythromycin, and 500 μL was used for luminescence measurements (described below).
At each time point, abundance of each species was assessed by qPCR from fecal DNA using strain specific primers described previously (Cullen, T. W. et al., 2015, Science, 347:170-175). qPCR was performed as described (Goodman, A. L. et al., 2009, Cell Host and Microbe, 6:279-289; Martens, E. C. et al., 2008, Cell Host and Microbe, 4:447-457) using a CFX96 instrument (BioRad) and SYBR FAST universal master mix (KAPA Biosystems). Mean strain quantities were calculated using a standard curve.
The 500 μL collected from the resuspended fecal supernatant was centrifuged at 21,130×g for 3 minutes to pellet bacterial cells, which were then resuspended in 50 μL 1× BugBuster (Novagen) in 1×PBS and lysed by one round of freeze-thaw and 10 minutes of nutation at 26° C. Samples were centrifuged at 21,130×g for 10 minutes at 4° C., and 10 μL of the supernatant was mixed with an equal volume of NanoLuc Reaction Buffer to induce luminescence production. Luminescence was measured after a 5 minute incubation at 26° C. on a plate reader (BioTek Synergy H1) with an integration time of 1 second at a gain setting of 100. […]

sialidase BT0455 = test: Sialidase activity in murine fecal samples (pNP-SA hydrolysis, LC-MS); type: in vivo, Bacteroides thetaiotaomicron; details: mice carrying Bt^RS
Experimental: Groups of 6 germ-free Swiss Webster mice were orally gavaged with 1×10^9 CFU of the desired B. thetaiotaomicron strain. Fecal samples (˜100-200 mg) were collected daily for 12 days. aTC (100 μg/mL) was administered in drinking water for 12 hours after fecal collection on day 1. Fecal samples were homogenized in 1 mL of 1× tris-buffered saline (TBS) with a single 5 mm stainless steel bead using a bead beater (BioSpec Products) at 26° C. for 1 minute on the high setting, followed by vortexing at top speed for 8 minutes. Samples were then centrifuged at 500×g for 1 minute to pellet fibrous and insoluble matter. […]
Bacterial cells (collected and stored as described above) were lysed through one round of freeze-thaw followed by nutation for 10 minutes at 26° C. […] Quantification of the enzyme reaction product, p-nitrophenol (pNP), was identical to the LC-MS analysis of aTC described above, but with reduced injection volume (5 μL) and methanol replacing acetonitrile as solvent B for the reversed phase chromatography. […] Linear fit values were normalized to amount of protein in the cellular lysates added to each reaction, which was determined by Bradford. […]

## Cc1c2c(c(O)c3c(O)cccc13)C(=O)[C@]1(O)C(=O)C(C(N)=O)=C(O)[C@@H](N(C)C)[C@@H]1C2 [aTC, Anhydrotetracycline]
Bacteroides
  growth of Bacteroides in aTC: grow at wildtype rates
[1]
  concentration in drinking water that does not adversely affect mouse health: 100 µg/mL
[2]; 14-species community
  complete repression after removal of the inducer: 7 to 9 days
[2]; 14-species community, within 24 hours of 100 μg/mL aTC
  increase of luminescence in fecal pellets: ~4,500 fold
[2]; alpha and beta diversity, 19-day experiment
  impact on community structure: did not impact community structure
Sialidase BT0455
  sialidase activity again undetectable after aTC removal: 4 days
